Common to all, as to assay: two-electrode voltage clamp, Xenopus oocytes
Common to all, as to format: cell-based
(Two-electrode voltage clamp holds a large cell at a set potential and records current.)

One experiment has as its target T1, HassOR16/Orco (Helicoverpa assulta, UniProt C6K7C1).
T1 construct: full ORF in pT7Ts, cRNA co-expressed with Orco in Xenopus oocytes; with Odorant receptor coreceptor
T1 sequence (C6K7C1 1-422): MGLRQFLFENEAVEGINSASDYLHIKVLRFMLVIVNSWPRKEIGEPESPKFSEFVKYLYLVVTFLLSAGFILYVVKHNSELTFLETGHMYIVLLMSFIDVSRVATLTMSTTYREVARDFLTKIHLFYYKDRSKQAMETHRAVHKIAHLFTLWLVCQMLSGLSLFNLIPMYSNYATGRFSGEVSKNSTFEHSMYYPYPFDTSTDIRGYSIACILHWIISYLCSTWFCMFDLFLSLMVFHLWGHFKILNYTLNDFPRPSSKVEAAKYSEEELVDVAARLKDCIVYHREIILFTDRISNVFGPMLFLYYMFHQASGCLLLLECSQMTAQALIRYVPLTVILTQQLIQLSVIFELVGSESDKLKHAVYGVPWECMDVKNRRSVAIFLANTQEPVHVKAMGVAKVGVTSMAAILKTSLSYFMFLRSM
T1 sequence (A7UGE1 1-473 partner): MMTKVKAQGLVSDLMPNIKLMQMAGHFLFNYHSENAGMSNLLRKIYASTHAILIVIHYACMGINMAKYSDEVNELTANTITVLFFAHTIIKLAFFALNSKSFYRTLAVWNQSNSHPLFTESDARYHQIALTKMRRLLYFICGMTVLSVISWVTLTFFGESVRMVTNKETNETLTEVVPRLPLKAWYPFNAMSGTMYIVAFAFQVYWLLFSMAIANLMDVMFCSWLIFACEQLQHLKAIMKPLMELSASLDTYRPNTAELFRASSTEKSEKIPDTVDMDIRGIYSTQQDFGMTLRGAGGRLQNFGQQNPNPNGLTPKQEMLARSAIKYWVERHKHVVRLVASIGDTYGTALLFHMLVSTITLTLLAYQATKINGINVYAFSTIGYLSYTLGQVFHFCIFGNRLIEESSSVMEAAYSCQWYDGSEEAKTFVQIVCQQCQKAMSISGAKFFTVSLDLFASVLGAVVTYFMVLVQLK
Conditions: agonist; with Orco.

Another experiment concerns the target T2, HarmOR14b/HarmOrco (Helicoverpa armigera, UniProt R4JUU3).
T2 construct: gene OR14b; full ORF in pT7Ts, cRNA co-expressed with HarmOrco in Xenopus oocytes; alignment of OR14b orthologues over 440 residues; with Odorant receptor coreceptor
T2 sequence (R4JUU3 1-440): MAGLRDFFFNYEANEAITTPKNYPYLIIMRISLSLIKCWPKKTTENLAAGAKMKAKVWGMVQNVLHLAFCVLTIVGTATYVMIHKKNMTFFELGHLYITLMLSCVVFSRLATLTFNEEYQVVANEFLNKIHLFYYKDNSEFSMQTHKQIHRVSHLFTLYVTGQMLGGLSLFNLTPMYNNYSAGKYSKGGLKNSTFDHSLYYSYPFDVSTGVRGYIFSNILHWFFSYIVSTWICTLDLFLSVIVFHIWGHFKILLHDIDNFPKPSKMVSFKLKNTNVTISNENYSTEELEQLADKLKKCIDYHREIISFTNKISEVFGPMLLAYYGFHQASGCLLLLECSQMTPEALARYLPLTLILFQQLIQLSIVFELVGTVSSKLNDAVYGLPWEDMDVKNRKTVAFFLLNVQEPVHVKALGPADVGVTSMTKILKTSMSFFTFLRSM
The settings on record: agonist; 10^-4 mol/L; with HarmOrco.

In another experiment the target is T3, HassOR6/Orco (Helicoverpa assulta, UniProt R4JLZ7).
T3 construct: gene OR6; full ORF in pT7Ts, cRNA co-expressed with Orco in Xenopus oocytes; with Odorant receptor coreceptor
T3 sequence (R4JLZ7 1-425): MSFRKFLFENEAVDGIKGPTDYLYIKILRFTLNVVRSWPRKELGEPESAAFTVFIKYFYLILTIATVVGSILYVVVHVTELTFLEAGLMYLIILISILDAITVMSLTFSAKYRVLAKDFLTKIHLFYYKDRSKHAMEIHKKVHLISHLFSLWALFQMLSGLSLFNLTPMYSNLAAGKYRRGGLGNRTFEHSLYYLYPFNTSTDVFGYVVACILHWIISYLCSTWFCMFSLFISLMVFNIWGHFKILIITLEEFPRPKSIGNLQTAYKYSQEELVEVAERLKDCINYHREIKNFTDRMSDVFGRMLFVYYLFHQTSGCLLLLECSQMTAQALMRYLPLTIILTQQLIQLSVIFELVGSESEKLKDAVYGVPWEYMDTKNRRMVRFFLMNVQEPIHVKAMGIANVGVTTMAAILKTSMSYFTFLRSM
T3 sequence (A7UGE1 1-473 partner): T1 sequence (A7UGE1 1-473 partner)
Conditions: agonist, main ligand; with Orco.

Another experiment concerns the target T4, HassOR13/Orco (Helicoverpa assulta, UniProt A0A0B4ZYC6).
T4 construct: gene OR13; full ORF in pT7Ts, cRNA co-expressed with Orco in Xenopus oocytes; with Odorant receptor coreceptor
T4 sequence (A0A0B4ZYC6 1-425): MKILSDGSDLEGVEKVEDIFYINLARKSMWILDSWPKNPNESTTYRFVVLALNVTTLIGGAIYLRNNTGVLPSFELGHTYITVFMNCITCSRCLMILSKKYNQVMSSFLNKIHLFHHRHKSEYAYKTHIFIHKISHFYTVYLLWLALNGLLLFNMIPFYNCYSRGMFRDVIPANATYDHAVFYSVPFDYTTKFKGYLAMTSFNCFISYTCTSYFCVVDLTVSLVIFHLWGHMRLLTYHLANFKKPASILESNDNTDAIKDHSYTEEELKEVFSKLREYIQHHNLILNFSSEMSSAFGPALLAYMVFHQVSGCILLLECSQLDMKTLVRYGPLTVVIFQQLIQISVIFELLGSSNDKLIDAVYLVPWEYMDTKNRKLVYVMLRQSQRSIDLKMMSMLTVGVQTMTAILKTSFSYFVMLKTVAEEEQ
T4 sequence (A7UGE1 1-473 partner): T1 sequence (A7UGE1 1-473 partner)
The settings on record: agonist; with Orco.

With `CCCC/C=C\CCCCCCCC=O` [Z9-14:Ald], the current response entry on HassOR16/Orco is “HassOR13/Orco and HassOR16/Orco were narrowly tuned to Z11-16:Ald and Z9-14:Ald respectively”. Also, the inward current response result at HarmOR14b/HarmOrco is reported as “this receptor, when expressed in Xenopus oocytes, responds specifically to Z9-14:Ald”.
With `CCCCCC/C=C\CCCCCCCCO` [Z9-16:OH], the current response result at HassOR6/Orco was “HassOR6/Orco responded mainly to Z9-16:OH”.
`CCCC/C=C\CCCCCCCCCC=O` [Z11-16:Ald, (Z)-11-hexadecenal]: the current response entry at HassOR13/Orco is “HassOR13/Orco and HassOR16/Orco were narrowly tuned to Z11-16:Ald and Z9-14:Ald respectively”.
